The assay addresses T1, β-catenin/BCL9 (Homo sapiens, UniProt P35222).
T1 construct: Full-length β-catenin and (residues 1-781) were cloned into a pET-28b vector carrying a C-terminal 6× histidine; made in house; host or cells: E. coli BL21 DE3
T1 sequence (P35222 1-781): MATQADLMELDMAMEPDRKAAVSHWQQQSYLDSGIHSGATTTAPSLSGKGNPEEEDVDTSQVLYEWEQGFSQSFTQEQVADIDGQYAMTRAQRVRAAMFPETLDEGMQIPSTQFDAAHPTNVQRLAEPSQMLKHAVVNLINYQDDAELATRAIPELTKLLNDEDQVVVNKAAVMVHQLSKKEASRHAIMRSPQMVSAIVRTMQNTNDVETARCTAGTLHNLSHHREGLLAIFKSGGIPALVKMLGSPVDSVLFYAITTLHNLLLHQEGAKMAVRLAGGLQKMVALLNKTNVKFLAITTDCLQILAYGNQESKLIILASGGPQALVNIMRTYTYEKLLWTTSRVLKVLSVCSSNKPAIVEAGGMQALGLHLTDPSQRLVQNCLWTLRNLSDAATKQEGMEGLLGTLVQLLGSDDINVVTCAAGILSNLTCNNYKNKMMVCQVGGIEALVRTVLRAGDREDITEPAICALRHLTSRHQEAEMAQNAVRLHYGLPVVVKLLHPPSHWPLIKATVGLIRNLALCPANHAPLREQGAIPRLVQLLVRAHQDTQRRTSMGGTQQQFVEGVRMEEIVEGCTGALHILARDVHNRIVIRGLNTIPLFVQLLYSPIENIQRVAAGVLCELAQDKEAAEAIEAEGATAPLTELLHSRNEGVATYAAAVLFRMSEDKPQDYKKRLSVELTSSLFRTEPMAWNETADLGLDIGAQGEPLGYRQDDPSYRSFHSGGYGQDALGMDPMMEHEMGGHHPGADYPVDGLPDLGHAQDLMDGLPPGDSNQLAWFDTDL
Put plainly: AlphaScreen competitive inhibition assay, β-catenin/BCL9 PPI. Conditions: for Ki: AlphaScreen. The class given is binding. From the text: The biochemical AlphaScreen assay was employed to evaluate the inhibitory potency of these two final products for disruption of the β-catenin/BCL9 PPI.
BCL9 peptide synthesis and purification. Human BCL9 (residues 350-375), N-terminally biotinylated human BCL9 (residues 350-375), human E-cadherin (residues 824-877), and N-terminally biotinylated human E-cadherin (residues 824-877) were synthesized by InnoPep Inc. (San Diego, Calif., www.innopep.com). All synthesized peptides were purified by HPLC with purity >95%. The structures were validated by LC/MS. The sequences are as follows (Ahx, 6-aminohexanoic acid).
For the β-catenin/BCL9 assay, 5 nM of biotinylated BCL9 and 40 nM of His6-tagged β-catenin were incubated in assay buffer at 4° C. for 30 min. For the β-catenin/E-cadherin assay, 10 nM of biotinylated human E-cadherin, and 40 nM of His6-tagged human β-catenin were added and incubated in assay buffer at 4° C. for 30 min. Different concentrations of the tested peptide or inhibitor were added and incubated in 20 μL assay buffer at 4° C. for another 1.5 h. All of the above assay plates were covered and gently mixed on an orbital shaker. The donor and acceptor beads were then added to the plates to a final concentration of 10 μg/mL in 25 μL assay buffer. The mixture was incubated for 1 h at 4° C. before detection. The IC50 value was determined by nonlinear least-square analysis of GraphPad Prism 5.0. The inhibition constant (Ki) values were derived from the IC50 values using a method reported by Nikolovska-Coleska et al (Nikolovska-Coleska, Z.; Wang, R.; Fang, X.; Pan, H.; Tomita, Y.; Li, P.; Roller, P. P.; Krajewski, K.; Saito, N. G.; Stuckey, J. A.; Wang, S. Development and optimization of a binding assay for the XIAP BIR3 domain using fluorescence polarization, Anal. Biochem. 2004, 332, 261-273.). The assays were conducted under the conditions required by Nikolovska-Coleska et al.'s equation for determining the Ki values. All of the experiments were performed in triplicate. The results were expressed as mean±standard deviation. The inhibitor selectivity for, β-catenin/BCL9 over, β-catenin/E-cahderin interactions was defined as the ratio of the respective Ki value of β-catenin/E-cadherin interactions over that of β-catenin/BCL9 interactions.
Background: Bead proximity is the source of the signal in Alpha formats.

For the compound `Cl.Cl.O=C(Nc1ccc(O[C@@H]2CCNC2)c(-c2cccc(-c3nn[nH]n3)c2)c1)c1ccc(O[C@H]2CCNC2)c(-c2ccc(F)c(F)c2)c1` [Compound 4, 3′,4′-difluoro-6-(((S)-pyrrolidin-3-yl)oxy)-N-(6-(((R)-pyrrolidin-3-yl)oxy)-3′-(2H-tetrazol-5-yl)-[1,1′-biphenyl]-3-yl)-[1,1′-biphenyl]-3-carboxamide dihydrochloride], the “selectivity for β-catenin/BCL9 over β-catenin/E-cadherin PPIs (in words)” value (AlphaScreen biochemical assay) is listed as “exceptionally high selectivity”. Further, the inhibition constant Ki (commonly a measure of affinity in units of concentration, obtained from inhibition or displacement) reads like this: (Table 1, mean ± SD (n = 3)) 470 ± 140 nM; (Table 2, mean ± SD (n = 3)) 470 ± 140 nM. Also, where the note is “ratio of Ki β-catenin/E-cadherin over Ki β-catenin/BCL9”, the “Selectivity BCL9/cadherin” value is listed as more than 1900.

Values taken from patent US20220411414A1, “INHIBITORS FOR THE B-CATENIN/B-CELL LYMPHOMA 9 (BCL9) PROTEIN-PROTEIN INTERACTION” (H. LEE MOFFITT CANCER CENTER AND RESEARCH INSTITUTE, INC., priority 2018, published 2022).
